Data: patent US20010051612A1, “2-Thioether A2A receptor agonists” (priority 2000, published 2001)

What was measured:
A2A adenosine receptor = target: T1, A2A adenosine receptor (Sus scrofa, UniProt K9IW67); test: Affinity for the A2A receptor in a pig striatum membrane prep (displacement of tritiated ZM 241385); format: binding; settings: pig striatal membranes, [3H]ZM 241385 2 nM, 23° C. 2h, Ki from IC50
T1 construct: from tissue; host or cells: pig striatum membranes
Protocol: Compositions of this invention were assayed to determine their affinity for the A2A receptor in a pig striatum membrane prep. 0.2 mg of pig striatal membranes were treated with adenosine deaminase and 50 mM Tris buffer (pH=7.4) followed by mixing. […] After incubation at 23° C. for 2h, the solutions were filtered using a membrane harvester using multiple washing of the membranes (3×). The filter disks were counted in scintillation cocktail affording the amount of displacement of tritiated ZM by the competitive binding compositions of this invention. Greater than a 5 point curve was used to generate IC50's and the number of experiments (n) is indicated in the column marked in Tables 3-4 below. The Chang-Prusoff equation was used to generate Ki's from the IC50 data.

A1 = target: T2, A1 (Homo sapiens, UniProt P30542); test: Affinity for the A1 receptor (Ki column, no method described); format: binding; settings: compounds 1a-5a table
T2 sequence (P30542 1-326): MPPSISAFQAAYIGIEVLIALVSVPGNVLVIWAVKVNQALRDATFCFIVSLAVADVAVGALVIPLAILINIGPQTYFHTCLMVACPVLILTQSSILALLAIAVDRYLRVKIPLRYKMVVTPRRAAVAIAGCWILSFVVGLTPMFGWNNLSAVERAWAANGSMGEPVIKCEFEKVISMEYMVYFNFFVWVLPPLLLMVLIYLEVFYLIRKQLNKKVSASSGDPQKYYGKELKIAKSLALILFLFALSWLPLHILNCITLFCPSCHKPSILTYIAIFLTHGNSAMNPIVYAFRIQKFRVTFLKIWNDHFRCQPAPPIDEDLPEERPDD

T1 sequence (K9IW67 1-409): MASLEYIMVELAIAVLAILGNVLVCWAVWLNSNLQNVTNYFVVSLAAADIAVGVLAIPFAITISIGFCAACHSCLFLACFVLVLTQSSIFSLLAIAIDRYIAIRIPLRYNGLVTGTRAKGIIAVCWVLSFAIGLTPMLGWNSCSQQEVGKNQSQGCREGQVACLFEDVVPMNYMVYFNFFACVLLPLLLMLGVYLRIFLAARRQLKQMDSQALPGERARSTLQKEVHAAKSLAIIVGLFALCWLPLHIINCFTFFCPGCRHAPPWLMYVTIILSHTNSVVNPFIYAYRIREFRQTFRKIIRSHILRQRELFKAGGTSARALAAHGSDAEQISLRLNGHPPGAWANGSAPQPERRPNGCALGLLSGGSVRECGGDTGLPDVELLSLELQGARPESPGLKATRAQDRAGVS

Row | melting point | Ki (A2A adenosine receptor; Table 3, compounds 1-7) | Ki (A2A adenosine receptor; compounds 1a-5a) | Ki (A1) | SMILES
1 | – | > 10000 nM | – | – | Nc1nc(SCCCc2ccccc2)nc2c1ncn2[C@@H]1O[C@H](CO)[C@@H](O)[C@H]1O [Compound 4, (4S, 2R, 3R, 5R)-2-(6-amino-2-phenylpropylthiopurin-9-yl)-5-(hydroxymethyl)oxolane-3,4-diol]
2 | 185 to 188 °C | – | 6280 nM | – | CCNC(=O)[C@H]1O[C@@H](n2cnc3c(N)nc(SCCCc4ccccc4)nc32)[C@H](O)[C@@H]1O [Compound 4a, [(2S, 3S, 4R, 5R)-5-(6-amino-2-(phenylpropylthio)purin-9-yl)-3,4-dihydroxyoxolan-2-yl]-N-ethylcarboxamide]
3 | 177 °C (dec.) | > 10000 nM | – | – | CCCCCSc1nc(N)c2ncn([C@@H]3O[C@H](CO)[C@@H](O)[C@H]3O)c2n1 [Compound 5, (4S, 2R,3R, 5R)-2-(6-amino-2-pentyltiopurin-9-yl)-5-(hydroxymethymethyl)oxolane-3,4-diol]
4 | > 270 °C (dec.) | – | 4310 nM | – | CCCCCSc1nc(N)c2ncn([C@@H]3O[C@H](C(=O)NCC)[C@@H](O)[C@H]3O)c2n1 [Compound 5a, [(2S, 3S, 4R, 5R)-5-(6-amino-2-pentylthiopurin-9-yl)-3,4-dihydroxyoxolan-2-yl]-N-ethylcarboxamide]
5 | 88 to 90 °C | > 100000 nM | – | – | Nc1nc(SCCCCO)nc2c1ncn2[C@@H]1O[C@H](CO)[C@@H](O)[C@H]1O [Compound 6, (4S, 2R, 3R, 5R)-2-(6-amino-2-(4-hydroxybutylthio)purin-9-yl)-5-(hydroxymethyl)oxolane-3,4-diol]
6 | 213 °C (dec.) | > 10000 nM | – | – | Nc1nc(SC2CCCC2)nc2c1ncn2[C@@H]1O[C@H](CO)[C@@H](O)[C@H]1O [Compound 7, (4S, 2R, 3R, 5R)-2-(6-amino-2-cyclopentylthiopurin-9-yl)-5-(hydroxymethyl)oxolane-3,4-diol]

The next lines start with the compound.

Row | SMILES | melting point | Ki (A2A adenosine receptor; Table 3, compounds 1-7) | Ki (A2A adenosine receptor; compounds 1a-5a) | Ki (A1)
7 | Nc1nc(Sc2ccccc2)nc2c1ncn2[C@@H]1O[C@H](CO)[C@@H](O)[C@H]1O [Compound 1, (4S, 2R, 3R, 5R)-2-(6-amino-2-phenylthiopurin-9-yl)-5-(hydroxymethyl)oxolane-3,4-diol] | 137 to 139 °C | > 10000 nM | – | –
8 | CCNC(=O)[C@H]1O[C@@H](n2cnc3c(N)nc(Sc4ccccc4)nc32)[C@H](O)[C@@H]1O [Compound 1a, [(2S, 3S, 4R, 5R)-5-(6-amino-2-phenylthiopurin-9-yl)-3,4-dihydroxyoxolan-2yl]-N -ethylcarboxamide] | 122 to 125 °C | – | 6120 nM | –
9 | Nc1nc(SCc2ccccc2)nc2c1ncn2[C@@H]1O[C@H](CO)[C@@H](O)[C@H]1O [Compound 2, (4S, 2R. 3R, 5R)-2-(6-amino-2-phenylmethylthiopurin-9-yl)-5-(hydroxymethyl)-oxolane-3,4-diol] | – | 9540 nM | – | –
10 | CCNC(=O)[C@H]1O[C@@H](n2cnc3c(N)nc(SCc4ccccc4)nc32)[C@H](O)[C@@H]1O [Compound 2a, [(2S, 3S, 4R, 5R)-5-(6-amino-2-(phenylmethylthio)purin-9-yl)-3,4-dihydroxyoxolan-2yl]-N-ethylcarboxamide] | 245 °C (dec.) | – | > 10000 nM | –
11 | CCNC(=O)[C@H]1O[C@@H](n2cnc3c(N)nc(SCCc4ccccc4)nc32)[C@H](O)[C@@H]1O [Compound 3a, [(2S, 3S, 4R, 5R)-5-(6-amino-2-(phenylethylthio)purin-9-yl)-3,4-dihydroxyoxolan-2-yl]-N-ethylcarboxamide] | 97 to 99 °C | – | 85 nM | > 10000 nM
